Laboratory results as given in ChEMBL document CHEMBL1201862, “PubChem BioAssay data set” (2004).
Activity calls are given as the source filed them.

Assays:
[1] = Trypanosoma cruzi growth suppression in host cells – NIH3T3 host cells, beta-gal luminescence, confirmation (AID 2044); format: functional, cell-based;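 further: intracellular parasites grown in NIH/3T3 mouse fibroblasts as host cells; luminescent beta-galactosidase reporter signal from transgenic T. cruzi replicating inside host cells; inhibitors lower the luminescence signal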
[2] = NIH3T3 cell viability loss – ATP luminescence, mouse fibroblasts, counter-screen, dose response (AID 2010); format: functional, cell-based;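 further: cells exposed to compound for about 90 hours before reading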
[3] = M. tuberculosis H37Rv growth inhibitors, H37Rv strain (AID 1626); format: functional
[4] = viability loss in Vero cells – cytotoxicity control for Vif-APOBEC3G degradation inhibitor project, dose response (AID 1117358); format: functional; details: Vero
[5] = target: Voltage-gated inwardly rectifying potassium channel KCNH2 (Homo sapiens, UniProt Q12809); experiment: concentration-dependent hERG rescue from blockers – cell-based, thallium flux, dose response (AID 2121); format: ADME
Chain of Voltage-gated inwardly rectifying potassium channel KCNH2 (Q12809 whole entry): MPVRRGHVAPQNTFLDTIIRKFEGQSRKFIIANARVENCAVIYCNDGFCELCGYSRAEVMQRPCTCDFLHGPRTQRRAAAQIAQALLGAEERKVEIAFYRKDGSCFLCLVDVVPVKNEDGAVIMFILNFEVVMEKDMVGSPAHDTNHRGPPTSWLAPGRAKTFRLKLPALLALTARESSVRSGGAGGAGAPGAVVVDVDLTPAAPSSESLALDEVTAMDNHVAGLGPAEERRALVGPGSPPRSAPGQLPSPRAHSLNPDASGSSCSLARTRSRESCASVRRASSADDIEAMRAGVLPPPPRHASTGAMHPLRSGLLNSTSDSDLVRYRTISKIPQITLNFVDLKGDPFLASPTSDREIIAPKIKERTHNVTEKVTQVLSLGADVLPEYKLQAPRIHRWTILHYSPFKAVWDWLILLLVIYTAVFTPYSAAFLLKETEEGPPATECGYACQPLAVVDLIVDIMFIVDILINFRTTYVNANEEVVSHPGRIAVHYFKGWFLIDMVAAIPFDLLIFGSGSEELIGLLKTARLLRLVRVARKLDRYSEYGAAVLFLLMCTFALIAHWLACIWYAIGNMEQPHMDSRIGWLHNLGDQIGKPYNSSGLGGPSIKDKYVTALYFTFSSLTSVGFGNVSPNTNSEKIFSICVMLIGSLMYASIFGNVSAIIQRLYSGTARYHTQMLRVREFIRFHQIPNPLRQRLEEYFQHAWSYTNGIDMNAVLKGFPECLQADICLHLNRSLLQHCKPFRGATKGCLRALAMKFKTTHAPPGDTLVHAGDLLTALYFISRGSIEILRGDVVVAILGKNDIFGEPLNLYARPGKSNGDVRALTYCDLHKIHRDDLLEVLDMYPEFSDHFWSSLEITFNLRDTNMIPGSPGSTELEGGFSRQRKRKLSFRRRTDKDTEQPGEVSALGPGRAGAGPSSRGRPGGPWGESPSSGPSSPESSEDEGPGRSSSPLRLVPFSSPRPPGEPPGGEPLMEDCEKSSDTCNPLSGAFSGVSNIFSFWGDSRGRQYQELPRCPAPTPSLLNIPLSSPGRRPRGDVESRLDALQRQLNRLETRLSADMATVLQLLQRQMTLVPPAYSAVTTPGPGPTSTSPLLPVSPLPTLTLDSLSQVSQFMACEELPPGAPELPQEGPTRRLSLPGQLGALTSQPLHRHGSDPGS

Caspase-6 = target: T1, Caspase-6 (Homo sapiens, UniProt P55212); experiment: inhibition of CASP6 peptide cleavage – biochemical, VEID-R110 fluorescence, cherry-pick, dose response (AID 720632)
T1 sequence (P55212 whole entry): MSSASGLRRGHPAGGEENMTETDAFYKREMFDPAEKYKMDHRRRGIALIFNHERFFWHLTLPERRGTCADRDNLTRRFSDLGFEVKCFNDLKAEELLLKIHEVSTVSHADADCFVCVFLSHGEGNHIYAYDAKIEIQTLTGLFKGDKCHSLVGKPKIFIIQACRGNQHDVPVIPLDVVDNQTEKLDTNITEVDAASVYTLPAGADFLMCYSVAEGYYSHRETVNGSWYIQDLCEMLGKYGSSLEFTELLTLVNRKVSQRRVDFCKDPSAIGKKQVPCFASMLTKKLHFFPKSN

[6] = reduction of Shn3 3'UTR-driven luciferase in osteoblasts – cell-based, Clone20 osteoblasts, firefly luciferase, cherry-picked, dose response (AID 624132); format: functional;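 further: firefly luciferase luminescence from reporter carrying the Shn3 3'UTR in osteoblasts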
Protein Wnt-3a = Protein Wnt-3a (Mus musculus, UniProt P27467); experiment: antagonism of Wnt3a pathway luciferase reporter – Wnt-LIGHT cells, luminescence, selectivity assay for Gli-SUFU antagonist project, dose response (AID 651570); format: functional; details: read-out: IC50_Mean;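 further: Wnt-LIGHT reporter cells stimulated with conditioned medium from Wnt3a-producing cells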
Chain of Protein Wnt-3a (P27467 whole entry): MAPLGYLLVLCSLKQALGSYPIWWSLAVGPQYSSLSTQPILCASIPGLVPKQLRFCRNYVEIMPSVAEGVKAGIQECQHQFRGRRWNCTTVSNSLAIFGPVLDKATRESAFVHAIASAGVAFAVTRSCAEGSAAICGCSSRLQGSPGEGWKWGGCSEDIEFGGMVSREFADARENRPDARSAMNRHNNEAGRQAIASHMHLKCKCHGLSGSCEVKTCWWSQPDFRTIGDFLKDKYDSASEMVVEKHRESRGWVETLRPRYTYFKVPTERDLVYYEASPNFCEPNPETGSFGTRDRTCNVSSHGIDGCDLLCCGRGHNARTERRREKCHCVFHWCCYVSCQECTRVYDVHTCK

[7] = loss of viability in HepG2 cells – cell-based, CellTiter-Glo, cherry-picked, cytotoxicity control for Shn3 inhibitor project, dose response (AID 624134); format: functional
[8] = target: T2, COUP transcription factor 2 (Homo sapiens, UniProt P24468); experiment: Luminescence-based cell-based high throughput dose response assay to identify inhibitors of COUP-TFII (NR2F2).; format: functional;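 further: HEK293 cells transiently cotransfected with COUP-TFII expression vector and reporter; luciferase reporter luminescence driven by COUP-TFII from the pX2-168 reporter plasmid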
T2 sequence (P24468 whole entry): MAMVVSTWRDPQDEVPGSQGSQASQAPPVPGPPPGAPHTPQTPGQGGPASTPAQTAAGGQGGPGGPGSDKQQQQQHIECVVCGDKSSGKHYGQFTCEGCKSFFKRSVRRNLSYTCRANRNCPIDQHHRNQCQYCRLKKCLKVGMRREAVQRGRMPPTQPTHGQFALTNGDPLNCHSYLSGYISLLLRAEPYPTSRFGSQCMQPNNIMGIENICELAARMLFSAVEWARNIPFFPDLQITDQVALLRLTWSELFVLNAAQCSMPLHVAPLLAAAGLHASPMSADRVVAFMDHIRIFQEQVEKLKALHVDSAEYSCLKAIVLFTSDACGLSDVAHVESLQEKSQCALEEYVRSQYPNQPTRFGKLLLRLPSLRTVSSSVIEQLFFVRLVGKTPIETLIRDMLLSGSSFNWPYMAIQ

[9] = target: T3, Oxysterols receptor LXR-beta (Homo sapiens, UniProt P55055); experiment: LXR agonists, Gal4 luciferase reporter, dose response, counter-screen for ssDAF-12 agonist project, cell-based, luminescence, HEK293, S. stercoralis campaign (AID 720737); format: functional; details: read-out: IC50 (the source's name)
T3 sequence (P55055 whole entry): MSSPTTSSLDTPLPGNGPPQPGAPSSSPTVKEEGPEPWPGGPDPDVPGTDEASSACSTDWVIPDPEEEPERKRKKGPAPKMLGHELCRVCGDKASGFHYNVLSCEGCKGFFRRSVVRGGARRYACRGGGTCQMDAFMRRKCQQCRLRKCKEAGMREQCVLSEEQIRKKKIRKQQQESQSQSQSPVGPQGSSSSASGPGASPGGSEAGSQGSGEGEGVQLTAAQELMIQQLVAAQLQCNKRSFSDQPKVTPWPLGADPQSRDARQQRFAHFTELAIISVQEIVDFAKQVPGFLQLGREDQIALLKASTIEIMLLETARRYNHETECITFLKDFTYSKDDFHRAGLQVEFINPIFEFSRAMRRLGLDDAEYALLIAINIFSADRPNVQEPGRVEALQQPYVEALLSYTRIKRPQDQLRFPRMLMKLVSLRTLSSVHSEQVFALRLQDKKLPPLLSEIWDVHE

[10] = Luminescence-based cell-based high throughput dose response assay to identify activators of the DAF-12 from the parasite S. stercoralis (ssDAF-12).; format: functional
[11] = target: T4, Rac GTPase-activating protein 1 (Homo sapiens, UniProt Q9H0H5); experiment: blockers of MgcRacGAP-driven Rac1 GTP hydrolysis – biochemical, ADP Hunter fluorescence, primary and confirmatory, confirmation (AID 624330); format: functional
T4 sequence (Q9H0H5 whole entry): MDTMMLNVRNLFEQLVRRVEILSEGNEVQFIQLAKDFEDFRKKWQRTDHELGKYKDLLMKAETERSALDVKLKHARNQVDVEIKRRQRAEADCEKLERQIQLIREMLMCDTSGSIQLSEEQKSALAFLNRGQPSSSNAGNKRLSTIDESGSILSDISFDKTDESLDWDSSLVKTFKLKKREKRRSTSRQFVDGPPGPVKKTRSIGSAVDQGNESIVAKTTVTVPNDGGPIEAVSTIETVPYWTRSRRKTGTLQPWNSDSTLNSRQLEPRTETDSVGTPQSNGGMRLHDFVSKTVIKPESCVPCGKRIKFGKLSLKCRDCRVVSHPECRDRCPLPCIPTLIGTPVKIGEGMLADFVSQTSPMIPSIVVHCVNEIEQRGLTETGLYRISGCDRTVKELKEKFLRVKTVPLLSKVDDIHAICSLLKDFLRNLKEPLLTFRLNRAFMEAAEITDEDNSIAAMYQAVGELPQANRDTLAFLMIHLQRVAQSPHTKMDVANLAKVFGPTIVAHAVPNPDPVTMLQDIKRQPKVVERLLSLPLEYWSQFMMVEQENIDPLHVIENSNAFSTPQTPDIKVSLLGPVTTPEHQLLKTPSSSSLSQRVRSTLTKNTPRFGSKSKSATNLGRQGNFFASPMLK

[12] = target: FAD-linked sulfhydryl oxidase ALR (Homo sapiens, UniProt P55789); experiment: ALR-catalysed DTT oxidation blockers – biochemical, H2O2 detection, luminescence, cherry-pick, dose response (AID 493248)
Chain of FAD-linked sulfhydryl oxidase ALR (P55789 whole entry): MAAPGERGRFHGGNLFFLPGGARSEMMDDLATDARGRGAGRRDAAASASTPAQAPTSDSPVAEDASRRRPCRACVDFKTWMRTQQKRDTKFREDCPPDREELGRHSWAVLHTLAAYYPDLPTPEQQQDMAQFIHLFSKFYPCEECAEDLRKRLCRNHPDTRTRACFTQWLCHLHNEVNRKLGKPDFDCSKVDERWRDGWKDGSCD

[13] = toxicity to human hepatoma HepG2 cells – cell-based, cherry-picked samples, cytotoxicity control, dose response (AID 1159577); format: functional
[14] = P. falciparum Dd2 growth inhibitors, dose response, SYBR Green, cherry-picked samples (AID 1159567); format: functional, cell-based
[15] = non-specific 3'UTR reporter inhibition in Clone20-Shn3RL – cell-based, Renilla luciferase, cherry-picked, counter-screen for Shn3 inhibitor project, dose response (AID 624133); format: functional
[16] = Luminescence Cell-Based Dose Retest to Confirm Inhibitors of Cancer Stem Cells. [Related pubchem assays (depositor defined):AID2717, AID2721]; format: functional; details: Homo sapiens
INS1 = experiment: INS-1E survival protection against cytokine death – cell-based, luminescence, retest, dose response (AID 449756); format: functional; details: Rattus norvegicus;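 further: cell death triggered by IL-1 beta plus TNF-alpha plus IFN-gamma mixture; protective hits raise ATP signal compared with cytokine alone wells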
[17] = test system: Streptococcus sp. 'group A'; experiment: Streptococcus pyogenes SK(-)GAS viability under kanamycin – luminescence, BacTiterGlo, confirmation, counter-screen for streptokinase expression inhibitor project, dose response (AID 1900); format: functional, organism-based
Streptococcus = experiment: GAS UMAA2166 growth inhibition – luminescence, BacTiterGlo, counter-screen for streptokinase expression inhibitor project, dose response (AID 1915); format: functional, organism-based;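 further: potency for reduction of bacterial viability or growth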
[18] = fluconazole-exposed Candida albicans growth modulators – fluorescence, retest, confirmation (AID 2467); format: functional, cell-based
[19] = NIH-3T3 fibroblast cytotoxicity, dose response, cytotoxicity control, cell-based, fluorescence, Alamar Blue, secondary assay (AID 2327); format: functional;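 further: NIH-3T3 mouse fibroblasts cultured with fluconazole at 8 µg/mL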

For `O=C(CCC1CCCN(Cc2cccc(Cl)c2)C1)NCc1ccccc1F` (centres undefined), the EC50 (cells) was 0.045 µM (active), the EC50 [1] was < 0.1 µM (active) and the EC50 [2] was > 30 µM (not active).

For `Cc1nc(SCc2ccccc2F)c2oc3ccccc3c2n1`, the IC50 [3] was > 100 µM (active).

In the case of `c1ccc(-c2cc(-c3nnc4n3N=C(c3ccc5ccccc5c3)CS4)n[nH]2)cc1`, the CC50 [4] is reported as > 40 µM (active), the EC50 [1] is reported as 1.63 µM (active) and the EC50 [2] is reported as 7.45 µM (active).

With `Cc1ccc(NC(S)=NNc2ncc(C(F)(F)F)cc2Cl)cc1` the CC50 [4] was > 40 µM (active).

With `C=C(C)CN=C(S)NN=C1c2ccccc2-c2ccccc21` the EC50 [5] was 0.95 µM (active).

For `CC(C)(C)c1ccc(C(=O)Nn2c(CCC(=O)O)ccc2-c2cccs2)cc1`, the AC50 (Caspase-6) was 45.1 µM (active).

For `O=C(Nc1nnc(Cc2c[nH]c3ccccc23)s1)c1ccc(Cl)cc1Cl`, the AC50 (Caspase-6) was 49.2 µM (active).

In the case of `CCOc1ccc(NC(=O)CSc2ccccc2N)cc1`, the IC50 [3] is reported as > 100 µM (active).

With `Cc1ccc2nc(N(CCCN(C)C)C(=O)c3ccc(S(=O)(=O)N4CCOCC4)cc3)sc2c1` the EC50 (cells) was 0.007 µM (active), the EC50 [1] was < 0.1 µM (active) and the EC50 [2] was 10.8 µM (active).

In the case of `CC(=O)c1cccc(NS(=O)(=O)c2ccc(-c3cnc(C4CC4)o3)cc2)c1`, the AC50 [6] is reported as 5 µM (active), the IC50 (Protein Wnt-3a) is reported as 6.03 µM (active) and the AC50 [7] is reported as 47.3 µM (active). For the same compound, the IC50 [8] was 12.3 µM (inactive).

In the case of `COc1cc(-c2nnc(O)o2)cc(OC)c1OC`, the CC50 [4] is reported as > 40 µM (active).

For `CC1=NN(C(=O)CCc2ccc3c(c2)OCO3)C(O)(C(F)(F)F)C1` (centres undefined), the EC50 [9] was > 67.5 µM (inactive) and the IC50 [10] was > 67.5 µM (inactive).

In the case of `CC(=O)N1CCN(c2ccc(N)cc2)CC1`, the AC50 (Caspase-6) is reported as 11.1 µM (active), the IC50 [11] is reported as 16.2 µM (active) and the AC50 [12] is reported as 1.06 µM (active).

In the case of `c1ccc(Cc2c(-c3ccco3)nc3c4ccccc4ccn23)cc1`, the EC50 [9] is reported as > 67.5 µM (inactive) and the IC50 [10] is reported as > 67.5 µM (inactive).

With `Cc1ccc(/C=N/Nc2ccc(C(=O)O)cc2)o1` the EC50 [5] was 11 µM (active) and the AC50 [12] was 2.79 µM (active).

With `Cc1ccc(-c2ccc([C@@H]3[C@H](CO)N4CCCCN(S(=O)(=O)c5ccccc5C)C[C@@H]34)cc2)cc1` the AC50 [13] was 11 µM (active) and the AC50 [14] was 0.589 µM (active).

In the case of `CCC(=O)N1[C@H](CO)[C@H](c2ccc(C3=CCCC3)cc2)[C@H]1CNC1CCCC1`, the AC50 [13] is reported as > 42 µM (inactive) and the AC50 [14] is reported as 5.63 µM (active).

In the case of `Oc1ccc(CCNc2ncnc3ccc(Cl)cc23)cc1`, the AC50 [6] is reported as 0.551 µM (active), the AC50 [15] is reported as 0.942 µM (active) and the AC50 [16] is reported as 1.57 µM (active). For the same compound, the AC50 (INS1) was 3.73 µM (active), the AC50 [7] was 43 µM (active) and the IC50 [8] was 5.5 µM (active).

With `CC(C)(C)c1ccc(C(=O)CC(=O)c2cc(Cl)ccc2O)cc1` the EC50 [17] was 0.192 µM (active), the EC50 (Streptococcus) was 2.68 µM (active) and the EC50 [18] was 1.9 µM (active). The EC50 [5] was 6.61 µM (active) and the EC50 [19] was 136 µM (active).
